Reference: patent US6054435A, “6-O-substituted macrolides having antibacterial activity” (priority 1999, dated 2000)
Converted amounts (≈) assume the structure as drawn.

How the values were obtained:
Assay in all cases: in vitro antibacterial activity (MIC), agar dilution
Type in all cases: cell-based
[1] = tested on: Staphylococcus aureus A-5278; conditions: organism code CC; BHI agar, 35-37° C., 20 to 24 hours; unit assumed
Outline: (§1)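 Test compound serially diluted in Brain Heart Infusion agar across twelve plates; inocula of 1:100 dilution (1:10 for slow growers such as Streptococcus) applied by Steers replicator. MIC taken visually as lowest concentration giving no growth, slight haze or sparse isolated colonies versus drug-free growth control.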

[2] = tested on: Staphylococcus aureus NCTC10649M; conditions: organism code EE; BHI agar, 35-37° C., 20 to 24 hours; unit assumed
Outline: as §1

[3] = tested on: Haemophilis Influenzae DILL AMP R; conditions: organism code WW; BHI agar, 35-37° C., 20 to 24 hours; unit assumed
Outline: as §1

[4] = tested on: Streptococcus bovis A-5169; conditions: organism code JJ; BHI agar, 35-37° C., 20 to 24 hours; unit assumed
Outline: as §1

[5] = tested on: Candida albicans CCH 442; conditions: organism code TT; BHI agar, 35-37° C., 20 to 24 hours; unit assumed
Outline: as §1

[6] = tested on: Streptococcus pyogenes PIU 2548; conditions: organism code NN; BHI agar, 35-37° C., 20 to 24 hours; unit assumed
Outline: as §1

[7] = tested on: Streptococcus Pneumonia ATCC6303; conditions: organism code XX; BHI agar, 35-37° C., 20 to 24 hours; unit assumed
Outline: as §1

[8] = tested on: Staphylococcus aureus 1775; conditions: organism code GG; BHI agar, 35-37° C., 20 to 24 hours; unit assumed
Outline: as §1

[9] = tested on: Streptococcus pyogenes 930; conditions: organism code MM; BHI agar, 35-37° C., 20 to 24 hours; unit assumed
Outline: as §1

[10] = tested on: Micrococcus luteus ATCC 4698; conditions: organism code PP; BHI agar, 35-37° C., 20 to 24 hours; unit assumed
Outline: as §1

[11] = tested on: Streptococcus Pneumonia 5649; conditions: organism code ZZA; BHI agar, 35-37° C., 20 to 24 hours; unit assumed
Outline: as §1

[12] = tested on: Streptococcus pyogenes EES61; conditions: organism code LL; BHI agar, 35-37° C., 20 to 24 hours; unit assumed
Outline: as §1

[13] = tested on: Streptococcus Pneumonia 5979; conditions: organism code ZZ; BHI agar, 35-37° C., 20 to 24 hours; unit assumed
Outline: as §1

[14] = tested on: Escherichia coli JUHL; conditions: organism code QQ; BHI agar, 35-37° C., 20 to 24 hours; unit assumed
Outline: as §1

[15] = tested on: Streptococcus Pneumonia GYR 1171; conditions: organism code YY; BHI agar, 35-37° C., 20 to 24 hours; unit assumed
Outline: as §1

[16] = tested on: Staphylococcus aureus CMX 553; conditions: organism code FF; BHI agar, 35-37° C., 20 to 24 hours; unit assumed
Outline: as §1

[17] = tested on: Streptococcus agalactiae CMX 508; conditions: organism code KK; BHI agar, 35-37° C., 20 to 24 hours; unit assumed
Outline: as §1

[18] = tested on: Mycobacterium smegmatis ATCC 114; conditions: organism code UU; BHI agar, 35-37° C., 20 to 24 hours; unit assumed
Outline: as §1

[19] = tested on: Micrococcus luteus ATCC 9341; conditions: organism code OO; BHI agar, 35-37° C., 20 to 24 hours; unit assumed
Outline: as §1

[20] = tested on: Staphylococcus aureus A5177; conditions: organism code BB; BHI agar, 35-37° C., 20 to 24 hours; unit assumed
Outline: as §1

[21] = tested on: Escherichia coli DC-2; conditions: organism code SS; BHI agar, 35-37° C., 20 to 24 hours; unit assumed
Outline: as §1

[22] = tested on: Staphylococcus aureus ATCC 6538P; conditions: organism code AA; BHI agar, 35-37° C., 20 to 24 hours; unit assumed
Outline: as §1

[23] = tested on: Staphylococcus aureus CMX 642A; conditions: organism code DD; BHI agar, 35-37° C., 20 to 24 hours; unit assumed
Outline: as §1

[24] = tested on: Staphylococcus epidermidis 3519; conditions: organism code HH; BHI agar, 35-37° C., 20 to 24 hours; unit assumed
Outline: as §1

[25] = tested on: Enterococcus faecium ATCC 8043; conditions: organism code II; BHI agar, 35-37° C., 20 to 24 hours; unit assumed
Outline: as §1

[26] = tested on: Nocardia Asteroides ATCC9970; conditions: organism code VV; BHI agar, 35-37° C., 20 to 24 hours; unit assumed
Outline: as §1

[27] = tested on: Escherichia coli SS; conditions: organism code RR; BHI agar, 35-37° C., 20 to 24 hours; unit assumed
Outline: as §1

Row | Compound | MIC [1] [µg/mL] | MIC [2] [µg/mL] | MIC [3] [µg/mL] | MIC [4] [µg/mL] | MIC [5] [µg/mL] | MIC [6] [µg/mL] | MIC [7] [µg/mL] | MIC [8] [µg/mL] | MIC [9] [µg/mL] | MIC [10] [µg/mL] | MIC [11] [µg/mL] | MIC [12] [µg/mL] | MIC [13] [µg/mL] | MIC [14] [µg/mL] | MIC [15] [µg/mL] | MIC [16] [µg/mL] | MIC [17] [µg/mL] | MIC [18] [µg/mL] | MIC [19] [µg/mL] | MIC [20] [µg/mL] | also measured
1 | CC[C@H]1OC(=O)[C@H](C)C(=O)[C@H](C)[C@@H](O[C@@H]2O[C@H](C)C[C@H](N(C)C)[C@H]2O)[C@](C)(OCC#Cc2ccc(-c3cncc(C(N)=O)c3)s2)C[C@@H](C)C(=O)[C@H](C)[C@H]2NC(=O)O[C@@]21C [Example 9] | > 100 | 0.2 (≈ 0.238 µM) | 2 (≈ 2.38 µM) | 0.02 (≈ 0.0238 µM) | > 100 | 0.2 (≈ 0.238 µM) | ≤ 0.004 | > 100 | 0.2 (≈ 0.238 µM) | 0.1 (≈ 0.119 µM) | 0.25 (≈ 0.298 µM) | 0.02 (≈ 0.0238 µM) | 0.03 (≈ 0.0358 µM) | 50 (≈ 59.6 µM) | ≤ 0.004 | 0.1 (≈ 0.119 µM) | 0.02 (≈ 0.0238 µM) | 6.2 (≈ 7.39 µM) | 0.02 (≈ 0.0238 µM) | 0.1 (≈ 0.119 µM) | MIC [21]: 50 µg/mL (≈ 59.6 µM); MIC [22]: 0.1 µg/mL (≈ 0.119 µM); MIC [23]: 0.1 µg/mL (≈ 0.119 µM); MIC [24]: 0.1 µg/mL (≈ 0.119 µM); MIC [25]: 0.05 µg/mL (≈ 0.0596 µM); MIC [26]: 0.1 µg/mL (≈ 0.119 µM); MIC [27]: 0.78 µg/mL (≈ 0.93 µM)
2 | CC[C@H]1OC(=O)[C@H](C)C(=O)[C@H](C)[C@@H](O[C@@H]2O[C@H](C)C[C@H](N(C)C)[C@H]2O)[C@](C)(OC/C=C/c2cnc(-c3cnccn3)s2)C[C@@H](C)C(=O)[C@H](C)[C@H]2NC(=O)O[C@@]21C [Example 58] | > 100 | 0.1 (≈ 0.125 µM) | 4 (≈ 5 µM) | 0.01 (≈ 0.0125 µM) | > 100 | 0.1 (≈ 0.125 µM) | ≤ 0.004 | > 100 | 3.1 (≈ 3.88 µM) | 0.05 (≈ 0.0625 µM) | 0.25 (≈ 0.313 µM) | 0.02 (≈ 0.025 µM) | 4 (≈ 5 µM) | 50 (≈ 62.5 µM) | ≤ 0.004 | 0.05 (≈ 0.0625 µM) | 0.02 (≈ 0.025 µM) | 1.56 (≈ 1.95 µM) | 0.01 (≈ 0.0125 µM) | 0.05 (≈ 0.0625 µM) | MIC [21]: 100 µg/mL (≈ 125 µM); MIC [22]: 0.1 µg/mL (≈ 0.125 µM); MIC [23]: 0.1 µg/mL (≈ 0.125 µM); MIC [24]: 0.1 µg/mL (≈ 0.125 µM); MIC [25]: 0.02 µg/mL (≈ 0.025 µM); MIC [26]: 0.02 µg/mL (≈ 0.025 µM); MIC [27]: 0.2 µg/mL (≈ 0.25 µM)
3 | CC[C@H]1OC(=O)[C@H](C)C(=O)[C@H](C)[C@@H](O[C@@H]2O[C@H](C)C[C@H](N(C)C)[C@H]2O)[C@](C)(OC/C=C/c2cncc(-n3ccnc3)c2)C[C@@H](C)C(=O)[C@H](C)[C@H]2NC(=O)O[C@@]21C [Example 37] | > 100 | 0.2 (≈ 0.256 µM) | 4 (≈ 5.12 µM) | 0.01 (≈ 0.0128 µM) | > 100 | 0.39 (≈ 0.499 µM) | ≤ 0.004 | > 100 | 25 (≈ 32 µM) | 0.2 (≈ 0.256 µM) | 2 (≈ 2.56 µM) | 0.02 (≈ 0.0256 µM) | > 128 | 50 (≈ 63.9 µM) | ≤ 0.004 | 0.1 (≈ 0.128 µM) | 0.02 (≈ 0.0256 µM) | 3.1 (≈ 3.96 µM) | 0.01 (≈ 0.0128 µM) | 0.1 (≈ 0.128 µM) | MIC [21]: 50 µg/mL (≈ 63.9 µM); MIC [22]: 0.1 µg/mL (≈ 0.128 µM); MIC [23]: 0.1 µg/mL (≈ 0.128 µM); MIC [24]: 0.1 µg/mL (≈ 0.128 µM); MIC [25]: 0.05 µg/mL (≈ 0.0639 µM); MIC [26]: 0.1 µg/mL (≈ 0.128 µM); MIC [27]: 0.39 µg/mL (≈ 0.499 µM)
